Read-outs that look alike come from different tables or passages of the source.
Columns and labels:
[1] = molecular target: T1, Aβ fibrils (Homo sapiens, UniProt P05067); conditions: read-out: Binding Affinity Ki; cited from earlier work
T1 construct: Aβ monomer

[2] = molecular target: fibrils (Aβ1-42) (Homo sapiens, UniProt P05067); experiment: Biacore assay, Aβ42 fibrils; assay type: binding; parameters: key: A “+” sign represents a hit; ++: the increase in “+” signs relates to increasing binding affinity; +++: the increase in “+” signs relates to increasing binding affinity; A “−”sign represents no binding; conditions: 10 uM
fibrils (Aβ1-42), sequence (P05067 672-713 limits assumed): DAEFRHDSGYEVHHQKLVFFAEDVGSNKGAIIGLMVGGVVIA
Procedure: β-Amyloid (Aβ42) Insoluble Aggregates (Fibrils). Fibrils were prepared according to methods published previously ([…] et al. 2001). Briefly, 0.5 mg of Aβ42 (Biotin-LC-Aβ42:Aβ42=1:1) was dissolved in 1 ml of PBS, pH 7.4, and mixed with a magnetic stir bar for 3 d at 37° C., resulting in a visibly cloudy solution. The fibril pellet was collected by centrifugation. The Biotin-LC-Aβ42 fibrils were immobilized onto SA chip by streptavidin-biotin capture. Screening of Amyloid Binding Compounds with Biacore (Surface Plasmon Resonance Analysis). Aβ42 oligomers/soluble polymers or fibrils were immobilized on Flow Cell 2 (Fc2) or Flow Cell 3 (Fc3) of the Sensor Chip, with Fc1 serving as the control. […] The Flow Cells were then washed with running buffer (1×PBS) for 2 minute, and regenerated with 50 mM of NaOH for 30 seconds. The real time interaction between the screening compound and the amyloid aggregates immobilized on the chip surface was recorded in the sensorgram.

[3] = molecular target: oligomers/polymers (Aβ1-42) (Homo sapiens, UniProt P05067); experiment: Biacore assay, Aβ42 oligomers/soluble polymers; assay type: binding; parameters: key: A “+” sign represents a hit; ++: the increase in “+” signs relates to increasing binding affinity; +++: the increase in “+” signs relates to increasing binding affinity; A “−”sign represents no binding; conditions: 10 uM
oligomers/polymers (Aβ1-42), sequence (P05067 672-713 limits assumed): as above
Procedure: β-Amyloid (Aβ42) Soluble Aggregates (Oligomers/Soluble Polymers). Biotin-LC-Aβ42 was mixed with Aβ42 at a ratio of 3:2. After dissolving in 1% NH4OH and dH2O, the mixture (40 uM concentration) was incubated in 1×PBS (pH 7.4) buffer at RT for 6-hours to form oligomers/soluble polymers. The free monomer of Aβ42 in the sample was removed using a Microcon centrifugal filter tube with a 10 KDa of MW cutoff. The Biotin-LC-Aβ42 oligomers/polymers were immobilized onto SA chip by streptavidin-biotin capture. Screening of Amyloid Binding Compounds with Biacore (Surface Plasmon Resonance Analysis). Aβ42 oligomers/soluble polymers or fibrils were immobilized on Flow Cell 2 (Fc2) or Flow Cell 3 (Fc3) of the Sensor Chip, with Fc1 serving as the control. […] The Flow Cells were then washed with running buffer (1×PBS) for 2 minute, and regenerated with 50 mM of NaOH for 30 seconds. The real time interaction between the screening compound and the amyloid aggregates immobilized on the chip surface was recorded in the sensorgram.

[4] = molecular target: T2, Aβ monomer (Homo sapiens, UniProt P05067); conditions: read-out: Binding Affinity IC50; cited from earlier work
T2 construct: Aβ monomer
T2 sequence (P05067 672-713 limits assumed): as above

[5] = Grey to white matter binding, autoradiography of AD patient brain slices; parameters: species or system human; conditions: for Grey/white matter binding ratio using mild wash conditions: mild wash: 30%/40%/20% EtOH:water
Procedure: A study was conducted to examine the grey to white matter binding ratios for 4 different tracers: CB-001, CB-003, FDDNP and F-PiB (FIG. 7 and FIG. 8 of U.S. Ser. No. 12/372,717). […] After the human brain slices from AD patients were incubated with a given tracer for 30 min, the slices were washed with various EtOH:water solutions in an attempt to optimize the grey to white matter ratios (FIG. 9 of U.S. Ser. No. 12/372,717). The results were surprising and unexpected in view of previous work performed by other researchers. CB-001 has a slightly higher c Log P than FDDNP (3.8 vs 3.4) and would be expected to have poorer washout than FDDNP based on these values. […] More specifically, the white matter binding of FDDNP is several shades darker than CB-001's white matter binding, indicating low non-specific binding of CB-001.

[6] = microPET imaging of AD-CB-001 in rat; assay type: in vivo, Sprague-Dawley rat; conditions: tail vein, 30 min dynamic microPET scan
Procedure: A white Sprague-Dawley rat was injected via tail vein with ˜850 uCi AD-CB-001, formulated in 10% EtOH:water. A dynamic scan was conducted for 30 min on a R4 microPET scanner. The data was reconstructed using 1 min framing.

[7] = test system: amyloid binding pockets; experiment: Blocking of [18F]-CB001 autoradiography staining
[8] = background in normal brain; assay type: binding
From the text: (§1) Furthermore, the selectivity can be evaluated in brains containing only Aβ plaques/no tau aggregates, Aβ plaques/and tau aggregates, and control brains. Unfortunately, there are no AD brains with only tau and no Aβ present. By testing radiolabeled tracers in these brain sections, one can more quantitative evaluate the relative binding strength (signal strength) and selectivity of various test compounds as they all contain the same radioactive tracer. For examples, if a test tracer binds only to tau, and not amyloid, it should show no signal in the Aβ plaques only brain sections. If a compound binds only to amyloid, it should show uptake in both types of brains. The difficulty of identifying and further quantifying selective compounds lies in the relative abundance of amyloid vs. tau, which is difficult to measure.

[9] = test system: tau/Ab; experiment: selectivity (tau/Ab); assay type: binding
From the text: as §1

[10] = GM Intensity (comp. with W372); assay type: binding; conditions: compared with W372
[11] = molecular target: T3, MAO-A (Homo sapiens, UniProt P21397); experiment: MAO inhibition, MAO-A; assay type: biochemical
T3 sequence (P21397 1-527): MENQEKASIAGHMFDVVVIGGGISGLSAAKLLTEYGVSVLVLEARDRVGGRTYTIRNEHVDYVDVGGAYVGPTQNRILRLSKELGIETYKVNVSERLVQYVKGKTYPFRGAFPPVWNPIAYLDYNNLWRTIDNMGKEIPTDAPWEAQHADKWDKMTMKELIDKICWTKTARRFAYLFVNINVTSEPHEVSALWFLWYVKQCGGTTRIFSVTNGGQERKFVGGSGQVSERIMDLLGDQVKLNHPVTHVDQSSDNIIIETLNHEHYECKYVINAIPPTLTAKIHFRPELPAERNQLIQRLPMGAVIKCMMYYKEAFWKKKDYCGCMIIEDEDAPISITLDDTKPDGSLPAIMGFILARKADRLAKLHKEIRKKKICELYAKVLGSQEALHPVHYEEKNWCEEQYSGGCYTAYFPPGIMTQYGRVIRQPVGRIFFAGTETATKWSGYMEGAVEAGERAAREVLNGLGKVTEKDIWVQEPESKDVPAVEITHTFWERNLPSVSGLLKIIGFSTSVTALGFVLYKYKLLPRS

[12] = molecular target: T4, MAO-B (Homo sapiens, UniProt P27338); experiment: MAO inhibition, MAO-B; assay type: biochemical
T4 sequence (P27338 1-520): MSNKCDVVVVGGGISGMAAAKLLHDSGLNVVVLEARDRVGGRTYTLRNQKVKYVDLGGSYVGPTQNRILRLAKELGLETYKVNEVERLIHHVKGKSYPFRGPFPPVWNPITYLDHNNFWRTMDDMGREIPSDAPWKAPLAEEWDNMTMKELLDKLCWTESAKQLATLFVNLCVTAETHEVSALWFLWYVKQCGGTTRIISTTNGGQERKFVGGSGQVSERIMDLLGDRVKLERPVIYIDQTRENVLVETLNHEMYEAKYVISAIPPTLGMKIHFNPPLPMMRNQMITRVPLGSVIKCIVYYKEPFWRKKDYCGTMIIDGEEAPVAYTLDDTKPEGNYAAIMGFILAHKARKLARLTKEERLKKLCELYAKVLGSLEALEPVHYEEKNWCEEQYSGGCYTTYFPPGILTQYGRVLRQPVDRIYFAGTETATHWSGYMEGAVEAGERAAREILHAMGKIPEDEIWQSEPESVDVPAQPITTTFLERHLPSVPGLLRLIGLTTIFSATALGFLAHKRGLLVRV

[13] = test system: CNS selectivity panel; experiment: CNS selectivity panel (hits); assay type: binding
[14] = Brain uptake in rats and mice; assay type: in vivo
[15] = molecular target: AchE (Homo sapiens, UniProt P22303); experiment: AchE activity (IC50); assay type: biochemical
AchE, sequence (P22303 32-614): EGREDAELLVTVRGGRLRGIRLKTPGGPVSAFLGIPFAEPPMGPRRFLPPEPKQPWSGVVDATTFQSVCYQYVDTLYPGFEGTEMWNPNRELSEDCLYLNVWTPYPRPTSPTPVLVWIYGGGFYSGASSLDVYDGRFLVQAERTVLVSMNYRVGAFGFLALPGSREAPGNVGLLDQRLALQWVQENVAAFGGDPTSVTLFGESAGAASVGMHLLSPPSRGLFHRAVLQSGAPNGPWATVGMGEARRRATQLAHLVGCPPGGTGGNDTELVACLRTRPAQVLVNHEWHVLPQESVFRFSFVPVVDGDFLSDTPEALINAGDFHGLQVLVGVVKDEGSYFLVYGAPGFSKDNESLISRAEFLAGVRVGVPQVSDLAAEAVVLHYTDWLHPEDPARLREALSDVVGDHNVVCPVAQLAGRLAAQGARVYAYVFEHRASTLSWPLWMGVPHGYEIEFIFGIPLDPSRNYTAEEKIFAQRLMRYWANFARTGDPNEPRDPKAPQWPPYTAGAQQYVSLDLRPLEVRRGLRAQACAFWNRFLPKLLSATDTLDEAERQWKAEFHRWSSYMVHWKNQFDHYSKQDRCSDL

[16] = Brain uptake after intravenous injection into mice; assay type: in vivo; conditions: injected intravenously into mice
From the text: (§2) When injected intravenously into mice, the Carbazole based compounds; in particular T807, T805 and T794 have shown excellent brain uptake. These compounds also display high binding affinity to tau fibrils. […] In neuropathological staining, compounds of the present invention stained amyloid plaques and/or tau aggregates.

[17] = molecular target: T5, tau (Homo sapiens, UniProt P10636); experiment: KD (tau) binding; conditions: read-out: KD (tau)
T5 construct: Native forms of tau (various isoforms, hyperphosphorylated) and amyloid aggregates are present in brain sections and therefore preferred for compound testing
T5 sequence (P10636 623-758 limits assumed): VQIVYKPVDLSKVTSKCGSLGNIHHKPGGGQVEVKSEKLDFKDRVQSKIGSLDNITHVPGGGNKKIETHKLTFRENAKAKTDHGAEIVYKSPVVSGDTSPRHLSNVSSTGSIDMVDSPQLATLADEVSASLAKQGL
From the text: as §2, §1

[18] = test system: human hepatocytes; experiment: Metabolism in human hepatocytes; assay type: in vitro ADME
[19] = test system: tau/amyloid; experiment: Tx/tau/amyloid correlation; assay type: binding
[20] = molecular target: Amyloid (AD Patient's Brain Slice) (Homo sapiens, UniProt P05067); experiment: IC50 determination with [18F]-PiB by ex vivo competition assay using autoradiography staining; assay type: binding
Amyloid (AD Patient's Brain Slice), sequence (P05067 672-711 limits assumed): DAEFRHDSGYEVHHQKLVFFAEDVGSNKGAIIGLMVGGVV
From the text: Ex Vivo Competition Assay Using Amyloid (AD Patient's Brain Slice) Autoradiography Staining

T1 sequence (P05067 672-713 limits assumed): as the sequence (P05067 672-713 limits assumed) above

Question: With [11CH3]Nc1ccc(-c2cc3ccc(O)cc3o2)cc1 as the molecule, how does the Ki [1] read?
Answer: The Ki was 2.8 nM.

Question: For Oc1ccc2c(c1)[nH]c1ccccc12 [2-Hydroxycarbazole], which “Binding to fibrils (Aβ1-42)” value [2] is on record?
Answer: The value was “+”.

Question: What about the “Binding to oligomers/polymers (Aβ1-42)” value [3] of the same molecule?
Answer: Its value is “+++”.

Question: For O=S(=O)(O)c1cccc2cccc(Nc3ccccc3)c12 [ANS], which IC50 [4] is on record?
Answer: Its IC50 is > 100000 nM.

Question: Which non-specific binding propensity ([5]; compared to FDDNP) does the source give for FCCOc1ccc2c(c1)[nH]c1ccccc12 [CB-001, 2-(2-fluoroethoxy)-9H-carbazole] here?
Answer: The non-specific binding propensity was “lower”.

Question: And the “Grey/white matter binding ratio using harsh FDDNP wash conditions” value ([5]; harsh FDDNP wash: 70%/90%/70% EtOH:water)?
Answer: The value was “Excellent”.

Question: What about the “Grey/white matter binding ratio using mild wash conditions” value [5] of the same molecule?
Answer: Its value is “Poor”.

Question: And the “grey to white matter ratio” value ([5]; original wash, text b480)?
Answer: Its value is “much better”.

Question: What about the “brain entry and washout” value [6] of the same molecule?
Answer: The value was “entered the rat brain and quickly washed out”.

Question: What does the source list for FCCOCCOCCOc1ccc2c(c1)[nH]c1ccccc12 [CB-003, 2-(2-(2-(2-fluoroethoxy)ethoxy)ethoxy)-9H-carbazole]?
Answer: differentiation of healthy and AD brain ([5]; mild wash protocol): clearly differentiate between a healthy brain and an AD brain; Grey/white matter binding ratio using mild wash conditions [5]: Excellent; grey to white matter binding ratios ([5]; milder washing conditions, text b481): excellent

Question: For Nc1c(/N=N/c2ccc(-c3ccc(/N=N/c4cc(S(=O)(=O)O)c5ccccc5c4N)cc3)cc2)cc(S(=O)(=O)O)c2ccccc12 [Congo Red], which IC50 [4] is on record?
Answer: The IC50 was 2000 to 10000 nM.

Question: For COc1cc(/C=C/C(=O)/C=C(O)/C=C/c2ccc(O)c(OC)c2)ccc1O [Curcumin], which IC50 [4] is on record?
Answer: The IC50 was 10000 to 20000 nM.

Question: For CC(=C(C#N)C#N)c1ccc2cc(N(C)CCF)ccc2c1 [FDDNP], which “blocking of [18F]-CB001 staining” value [7] is on record?
Answer: The value was “much less capable of blocking”.

Question: With CNc1ccc(-c2nc3ccc(O)cc3s2)cc1 [PiB] as the molecule, how does the “blocking of [18F]-CB001 staining” value [7] read?
Answer: The value was “blocks [18F]-CB001 staining with increasing concentrations”.

Question: Which results are given for Cc1cnc2c(c1)[nH]c1cc(OCCF)ccc12 [T703, 7-(2-fluoroethoxy)-3-methyl-5H-pyrido[3,2-b]indole]?
Answer: background (normal brain 32566) PSL/mm2 [8]: 15 PSL/mm2; selectivity (tau/Ab) [9]: 16x; GM Intensity (comp. with W372) [10]: 6%; inhibition at 1 µM [11]: 16%; inhibition at 1 µM [12]: 0%; CNS selectivity panel (targets named) [13]: NET, σl; Brain uptake [14]: Yes

Question: What does the source list for FCCc1ccc2c(c1)[nH]c1ccncc12 [T805, 7-(2-Fluoroethyl)-5H-pyrido[4,3-b]indole]?
Answer: AchE activity, effect at 10 uM ([15]; at 10 uM): <50% at 10 uM; background (normal brain 32566) PSL/mm2 [8]: 49 PSL/mm2; selectivity (tau/Ab) [9]: 14x; Brain uptake [16]: excellent; GM Intensity (comp. with W372) [10]: 8%; inhibition at 1 µM [11]: 0%; Kd [17]: 32 nM; inhibition at 1 µM [12]: 0%; Brain uptake [14]: yes (2 rats, 2 mice)

Question: Which IC50 [15] does the source give for Fc1ccc(-c2ccc3c(c2)[nH]c2ccncc23)cn1 [T807, 7-(6-Fluoropyridine-3-yl)-5H-pyrido[4,3-b]indole] here?
Answer: Its IC50 is 6000 nM.

Question: What about the “background (normal brain 32566) PSL/mm2” value [8] of the same molecule?
Answer: The value was 61 PSL/mm2.

Question: And the “selectivity (tau/Ab)” value [9]?
Answer: The value was 29x.

Question: And the Brain uptake [16]?
Answer: Its Brain uptake is “excellent”.

Question: And the “GM Intensity (comp. with W372)” value [10]?
Answer: The value was 28%.

Question: And the inhibition at 1 µM [11]?
Answer: The inhibition at 1 µM was 0%.

Question: What about the Kd [17] of the same molecule?
Answer: The Kd was 15 nM.

Question: And the “human hepatocytes (metabolic stability)” value [18]?
Answer: Its value is “somewhat stable”.

Question: And the inhibition at 1 µM [12]?
Answer: The inhibition at 1 µM was 0%.

Question: What about the Brain uptake [14] of the same molecule?
Answer: Its Brain uptake is “yes (3 rats, 3 mice)”.

Question: What about the Tx/tau/amyloid correlation [19] of the same molecule?
Answer: Its Tx/tau/amyloid correlation is “yes”.

Question: Which results are given for F-PiB?
Answer: overall signal [5]: very weak; IC50 ([20]; average of determinations, read-out: Average IC50): 45 nM; IC50 ([20]; determination 9, read-out: IC50 9): 40 nM; IC50 ([20]; determination 10, read-out: IC50 10): 50 nM; IC50 ([20]; determination 11, read-out: IC50 11): 55 nM; IC50 ([20]; determination 12, read-out: IC50 12): 41 nM

Question: With Harmol as the molecule, how does the “Binding to fibrils (Aβ1-42)” value [2] read?
Answer: The value was “+”.

Question: And the “Binding to oligomers/polymers (Aβ1-42)” value [3]?
Answer: The value was “++”.
